Source: patent US20040202728A1, “Method for the destruction of oocysts” (priority 2001, published 2004)

Test system: Cryptosporidium oocysts
Experiment: Microelectrophoresis of oocysts in the presence of water treatment coagulants
Description: The zeta potentials of Cryptosporidium oocysts in the presence 5 mg/L ferric chloride were studied over a pH range 3-10.
As with the ferric flocs, it was possible to differentiate between the alum flocs and the oocyst in solution because of their different size, shape and scattering ability. The zeta potentials of Cryptosporidium oocysts in the presence of 6.8 mg/L alum were studied over a pH range 4-8.

O=S(=O)([O-])[O-].O=S(=O)([O-])[O-].O=S(=O)([O-])[O-].[Al+3].[Al+3] [alum]
adsorption of coagulant species to oocysts (from zeta potentials) (6.8 mg/L, pH range 4-8): chemisorbed to the oocyst surface

[Cl][Fe]([Cl])[Cl] [ferric chloride]
adsorption of coagulant species to oocysts (from zeta potentials) (5 mg/L, pH range 3-10): no adsorption
